According to patent US20250186627A1, “RADIOLABELED COMPOUNDS TARGETING THE PROSTATE-SPECIFIC MEMBRANE ANTIGEN” (PROVINCIAL HEALTH SERVICES AUTHORITY, priority 2022, published 2025):
*1 amine or outer side, *2 acyl side, *3 side chain or, on linkers, in order; H or OH if unused. Where a SMILES comes first, the peptide text is derived from it. [ ]: non-standard residue; d: D form. The star is where a group is joined. ξ: configuration not given here. ξLys(Nα-CO-ξAad) = O=C(O)CCCC(NC(=O)NC(CCCCN*)C(=O)O)C(=O)O; Butanoyl(4-(4-NO2Ph)) = O=C(CCCc1ccc([N+](=O)[O-])cc1)*; DOTA = O=C(O)CN1CCN(CC(=O)O)CCN(CC(=O)*)CCN(CC(=O)O)CC1; ξAla(9-anthryl) = NC(Cc1c2ccccc2cc2ccccc12)C(=O)O; X1 = O=C(C1CCC(CN[*:1])CC1)[*:2]; ξK = NCCCCC(N)C(=O)O

System: NRG-mice bearing LNCaP tumors
Experiment: Biodistribution (and PET/SPECT imaging) in NRG-mice bearing LNCaP tumors
Type: in vivo
Details: for Biodistribution: Adrenal gland / Biodistribution: Blood / Biodistribution: Bone / Biodistribution: Brain / Biodistribution: Fat / Biodistribution: Heart / Biodistribution: Intestine / Biodistribution: LNCaP tumor / Biodistribution: Lacrimal gland / Biodistribution: Liver / Biodistribution: Lungs / Biodistribution: Muscle / Biodistribution: Pancreas / Biodistribution: Salivary gland / Biodistribution: Seminal gland / Biodistribution: Spleen / Biodistribution: Stomach / Biodistribution: Testes / Biodistribution: Thyroid / Biodistribution: Urine / Biodistribution: kidney: Avg
Description: LNCaP cell line was obtained from ATCC (LNCaP clone FGC, CRL-1740). It was established from a metastatic site of left supraclavicular lymph node of human prostatic adenocarcinoma. Cells were cultured in PRMI 1640 medium supplemented with 10% FBS, penicillin (100 U/mL) and streptomycin (100 μg/mL) at 37° C. in a humidified incubator containing 5% CO2. Cells grown to 80-90% confluence were then washed with sterile phosphate-buffered saline (1×PBS pH 7.4) and trypsinization. The collected cells number was counted with a Hausser Scientific (Horsham, PA) Hemacytometer. Approximately 10 million LNCaP cells were inoculated into the left dorsal flank of immunocomprised NRG mice. The tumours were allowed to grow for 4-6 weeks and used for imaging and biodistribution studies when a volume of 200-600 mm^3 was reached.
PET imaging experiments were conducted using Siemens Inveon micro PET/CT scanner. SPECT imaging experiments were conducted using an MILabs micro SPECT/CT scanner. Each tumor bearing mouse was injected 4-6 MBq of ^68Ga or 18.5 MBq of ^177Lu labeled tracer through the tail vein under anesthesia (2% isoflurane in oxygen). The mice were allowed to recover and roam freely in their cage. At pre-defined time point, the mice were sedated again with 2% isoflurane in oxygen inhalation and positioned in the scanner. A 10-min CT scan was conducted first for localization and attenuation correction after segmentation for reconstructing the PET or SPECT images. Then, a 10-min static PET imaging or a one hour (30 min×2 frames) of static SPECT scan was performed to determined uptake in tumor and other organs. The mice were kept warm by a heating pad during acquisition.
For biodistribution studies, the mice were injected with the radiotracer as described above. The mice were anesthetized with 2% isoflurane inhalation, and euthanized by CO2 inhalation. Blood was withdrawn immediately from the heart, and the organs/tissues of interest were collected. The collected organs/tissues were weighed and counted using a Perkin Elmer (Waltham, MA) Wizard2 2480 gamma counter. The uptake in each organ/tissue was normalized to the injected dose (radioactivity) using a standard curve, and expressed as the percentage of the injected dose per gram of tissue (% ID/g).

## O=C([O-])CN1CCN(CC(=O)[O-])CCN(CC(=O)NCCCCC(NC(=O)CNC(=O)CCCc2ccc([N+](=O)[O-])cc2)C(=O)NCC(=O)NCC2CCC(C(=O)NC(Cc3c4ccccc4cc4ccccc34)C(=O)NCCCCC(NC(=O)NC(CCCC(=O)O)C(=O)O)C(=O)O)CC2)CCN(CC(=O)[O-])CC1.[177Lu+3] (stereo not shown) [^177Lu-CCZ02017] ({Butanoyl(4-(4-NO2Ph))}-G[ξK](DOTA)G[X1][ξAla(9-anthryl)]-{ξLys(Nα-CO-ξAad)})
  LNCaP tumor uptake compared to 177Lu-HTK03170: substantially improved
3 h p.i.
  Biodistribution: Adrenal gland: 3.41 % ID/g
  Biodistribution: Blood: 14.17 % ID/g
  Biodistribution: Bone: 0.78 % ID/g
  Biodistribution: Brain: 0.24 % ID/g
  Biodistribution: Fat: 1.85 % ID/g
  Biodistribution: Heart: 3.24 % ID/g
  Biodistribution: Intestine: 1.03 % ID/g
  Biodistribution: LNCaP tumor: 39.27 % ID/g
  Biodistribution: Lacrimal gland: 0.20 % ID/g
  Biodistribution: Liver: 2.31 % ID/g
  Biodistribution: Lungs: 6.68 % ID/g
  Biodistribution: Muscle: 1.18 % ID/g
  Biodistribution: Pancreas: 2.27 % ID/g
  Biodistribution: Salivary gland: 2.43 % ID/g
  Biodistribution: Seminal gland: 0.93 % ID/g
  Biodistribution: Spleen: 2.25 % ID/g
  Biodistribution: Stomach: 1.55 % ID/g
  Biodistribution: Testes: 6.56 % ID/g
  Biodistribution: Thyroid: 2.87 % ID/g
  Biodistribution: Urine: 97.91 % ID/g
  Biodistribution: kidney: 17.31 % ID/g
24 h p.i.
  Biodistribution: Adrenal gland: 0.61 % ID/g
  Biodistribution: Blood: 0.61 % ID/g
  Biodistribution: Bone: 0.07 % ID/g
  Biodistribution: Brain: 0.03 % ID/g
  Biodistribution: Fat: 0.20 % ID/g
  Biodistribution: Heart: 0.24 % ID/g
  Biodistribution: Intestine: 0.13 % ID/g
  Biodistribution: LNCaP tumor: 89.90 % ID/g
  Biodistribution: Lacrimal gland: 0.04 % ID/g
  Biodistribution: Liver: 0.31 % ID/g
  Biodistribution: Lungs: 0.55 % ID/g
  Biodistribution: Muscle: 0.08 % ID/g
  Biodistribution: Pancreas: 0.11 % ID/g
  Biodistribution: Salivary gland: 0.35 % ID/g
  Biodistribution: Seminal gland: 0.07 % ID/g
  Biodistribution: Spleen: 0.35 % ID/g
  Biodistribution: Stomach: 0.15 % ID/g
  Biodistribution: Testes: 0.48 % ID/g
  Biodistribution: Thyroid: 0.40 % ID/g
  Biodistribution: Urine: 9.85 % ID/g
  Biodistribution: kidney: 5.58 % ID/g
72 h p.i.
  Biodistribution: Adrenal gland: 0.34 % ID/g
  Biodistribution: Blood: 0.07 % ID/g
  Biodistribution: Bone: 0.02 % ID/g
  Biodistribution: Brain: 0.01 % ID/g
  Biodistribution: Fat: 0.15 % ID/g
  Biodistribution: Heart: 0.10 % ID/g
  Biodistribution: Intestine: 0.04 % ID/g
  Biodistribution: LNCaP tumor: 70.84 % ID/g
  Biodistribution: Lacrimal gland: 0.01 % ID/g
  Biodistribution: Liver: 0.23 % ID/g
  Biodistribution: Lungs: 0.16 % ID/g
  Biodistribution: Muscle: 0.02 % ID/g
  Biodistribution: Pancreas: 0.04 % ID/g
  Biodistribution: Salivary gland: 0.14 % ID/g
  Biodistribution: Seminal gland: 0.03 % ID/g
  Biodistribution: Spleen: 0.38 % ID/g
  Biodistribution: Stomach: 0.04 % ID/g
  Biodistribution: Testes: 0.29 % ID/g
  Biodistribution: Thyroid: 0.16 % ID/g
  Biodistribution: Urine: 2.63 % ID/g
  Biodistribution: kidney: 3.21 % ID/g
144 h p.i.
  Biodistribution: Adrenal gland: 0.23 % ID/g
  Biodistribution: Blood: 0.01 % ID/g
  Biodistribution: Bone: 0.02 % ID/g
  Biodistribution: Brain: 0.01 % ID/g
  Biodistribution: Fat: 0.22 % ID/g
  Biodistribution: Heart: 0.04 % ID/g
  Biodistribution: Intestine: 0.01 % ID/g
  Biodistribution: LNCaP tumor: 116.43 % ID/g
  Biodistribution: Lacrimal gland: 0.00 % ID/g
  Biodistribution: Liver: 0.09 % ID/g
  Biodistribution: Lungs: 0.08 % ID/g
  Biodistribution: Muscle: 0.01 % ID/g
  Biodistribution: Pancreas: 0.01 % ID/g
  Biodistribution: Salivary gland: 0.05 % ID/g
  Biodistribution: Seminal gland: 0.01 % ID/g
  Biodistribution: Spleen: 0.37 % ID/g
  Biodistribution: Stomach: 0.02 % ID/g
  Biodistribution: Testes: 0.15 % ID/g
  Biodistribution: Thyroid: 0.11 % ID/g
  Biodistribution: Urine: 1.88 % ID/g
  Biodistribution: kidney: 1.98 % ID/g
240 h p.i.
  Biodistribution: Adrenal gland: 0.02 % ID/g
  Biodistribution: Blood: 0.00 % ID/g
  Biodistribution: Bone: 0.01 % ID/g
  Biodistribution: Brain: 0.00 % ID/g
  Biodistribution: Fat: 0.06 % ID/g
  Biodistribution: Heart: 0.01 % ID/g
  Biodistribution: Intestine: 0.01 % ID/g
  Biodistribution: LNCaP tumor: 95.45 % ID/g
  Biodistribution: Lacrimal gland: 0.00 % ID/g
  Biodistribution: Liver: 0.06 % ID/g
  Biodistribution: Lungs: 0.14 % ID/g
  Biodistribution: Muscle: 0.01 % ID/g
  Biodistribution: Pancreas: 0.00 % ID/g
  Biodistribution: Salivary gland: 0.01 % ID/g
  Biodistribution: Seminal gland: 0.00 % ID/g
  Biodistribution: Spleen: 0.50 % ID/g
  Biodistribution: Stomach: 0.01 % ID/g
  Biodistribution: Testes: 0.08 % ID/g
  Biodistribution: Thyroid: 0.03 % ID/g
  Biodistribution: Urine: 0.43 % ID/g
  Biodistribution: kidney: 0.46 % ID/g
